Our source for the Ki and Dmax values is patent publication US20250263395A1, “COMPOUNDS THAT MEDIATE PROTEIN DEGRADATION AND METHODS OF USE THEREOF” (Monte Rosa Therapeutics AG, priority 2022, published 2025).

The target in one assay is CRBN-DDB1 (Homo sapiens (Human), UniProt Q96SW2). The experiment in a line: CRBN HTRF assay (Cy5-Thalidomide probe displacement). The class given is binding. The following applies: CRBN-DDB1 2.5 nM, Cy5-Thalidomide 100 nM, 30 min; Ki from geometric mean IC50 by Cheng-Prusoff. Here is the method: Compound activity was monitored in a Homogenous Time-Resolved Fluorescence (HTRF) assay using 1-[5-({2-[2-(2-{[2-(2,6-dioxopiperidin-3-yl)-1,3-dioxo-2,3-dihydro-1H-isoindol-4-yl]oxy}acetamido)ethoxy]ethyl}carbamoyl)pentyl]-3,3-dimethyl-2-[(1E,3E)-5-[(2E)-1,3,3-trimethyl-5-sulfo-2,3-dihydro-1H-indol-2-ylidene]penta-1,3-dien-1-yl]-3H-indol-1-ium-5-sulfonate as a fluorescent probe. Biochemical assays were conducted in Greiner white 384 well HiBase plates (Cat. No 784075-25) in 10 μL total volume. A one pot detection solution of CRBN-DDB1 (2.5 nM), Anti-His Terbium Cryptate Gold (1×, PerkinElmer Cat. #: 61HI2TLB), and Cy5-Thalidomide (100 nM, Tenova Cat.: T52461) was prepared in 20 mM HEPES, 20 mM NaCl, 0.2 mM TCEP, 0.2 mM EDTA, and 0.005% Tween20 was dispensed to each assay plate. Compounds were stored in dry, ambient temperatures at 10 mM. A 10-point, 1:3 dilution series was prepared from 10 mM stock concentrations in Echo-compatible LDV plates. 10 nL of each compound dilution series was dispensed into assays wells using an Echo 650 (Labcyte inc. USA). 10 nL of 10 mM Lenalidomide was transferred into the active-control wells for the assay and 10 nL of DMSO was transferred into the neutral-control wells. The assay was then allowed to incubate for 30 min at ambient temperature after transferring compound. Plate measurements were taken on a Pherastar FSX (BMG Labtech, Germany) using the HTRF Red filter (Ex. 337 nm, em1: 620 nm, em2: 665 nm) (Flashes: 50, Integration time: 60-400 us, Z-height: 10 mm, Ratio-multiplier: 10,000). The HTRF signal was then subsequently normalized to the neutral and active controls. Analysis and IC50 values were derived using KNIME analytics (KNIME Zurich) transformation and fitting within Collaborative Drug Discovery (Collaborative Drug Discovery USA). Ki was derived from the geometric mean of the IC50 values using the Cheng-Prustoff transformation.
In general terms: In TR-FRET formats the signal depends on donor and acceptor labels being close together.

In the next assay the target is CDK2 (Homo sapiens (Human), UniProt P24941). The experiment in a line: CDK2 NanoBiT assay (HiBiT-tagged CDK2 degradation). The format is cell-based. The following applies: C-terminal HiBiT tag on CDK2, LgBiT, 24 hours. On the procedure: Example 145. NanoBiT Assay
A HEK293 clonal line with a CRISPR knock-in C-terminal HiBiT tag on CDK2 and stably expressing LgBiT protein was obtained from Promega (Madison, WI). Cells were plated at 5000 cells per well using Multiflo (BioTek) in 384-well white solid bottom plates (Corning, 3570BC) in 25 ul volume in DMEM media (DMEM, high glucose, HEPES, no phenol red (ThermoFisher Scientific, 21063029)) containing 10% FBS (Corning, 35-075-CV), 1% Peniciliin/Streptomycin ((ThermoFisher Scientific, 15140-122), and 1% Endurazine (Nano-Glo Endurazine Live Cell Substrate (Promega, N2571)). Cells were incubated for 16 hours at 37 C, 5% CO2. 75 nL of a compound at 30 μM were dosed into the plate using an Echo® 650 liquid handler (Labcyte). Cells were incubated at 37° C., 5% CO2 for 24 hours and then signal was read on a Pherastar FSX using “LUM plus” optic module.
Analysis was performed in Scinamic (Scinamic, Cambridge, MA). Luminescence response (R) was calculated by the formula: response=100*(S−N)/(P−N) where S is the signal of the well, N and P the mean negative and positive control values respectively of the same plate. The luminescence response was then fitted in Scinamic using a 3-parameter agonist logistic fit (hillslope=1, EC50>0, top/bottom unconstrained).
Background: HiBiT is a short tag that completes a luciferase, so light tracks the accessible tagged protein.

pKi: −log10 of the molar value.

CRBN-DDB1, sequence (Q96SW2 whole entry): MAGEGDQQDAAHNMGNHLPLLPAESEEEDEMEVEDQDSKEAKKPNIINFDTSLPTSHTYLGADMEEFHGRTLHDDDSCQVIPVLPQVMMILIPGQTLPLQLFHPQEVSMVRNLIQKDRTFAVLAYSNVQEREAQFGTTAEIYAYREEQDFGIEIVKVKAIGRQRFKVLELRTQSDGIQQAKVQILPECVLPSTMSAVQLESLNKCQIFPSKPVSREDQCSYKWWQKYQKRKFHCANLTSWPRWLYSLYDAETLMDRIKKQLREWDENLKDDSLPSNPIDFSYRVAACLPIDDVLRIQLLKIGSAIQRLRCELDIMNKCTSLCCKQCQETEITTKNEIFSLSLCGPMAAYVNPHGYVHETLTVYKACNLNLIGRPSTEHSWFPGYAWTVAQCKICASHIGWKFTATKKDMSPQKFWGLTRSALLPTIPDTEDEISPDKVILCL
CRBN-DDB1, sequence (Q16531 whole entry partner): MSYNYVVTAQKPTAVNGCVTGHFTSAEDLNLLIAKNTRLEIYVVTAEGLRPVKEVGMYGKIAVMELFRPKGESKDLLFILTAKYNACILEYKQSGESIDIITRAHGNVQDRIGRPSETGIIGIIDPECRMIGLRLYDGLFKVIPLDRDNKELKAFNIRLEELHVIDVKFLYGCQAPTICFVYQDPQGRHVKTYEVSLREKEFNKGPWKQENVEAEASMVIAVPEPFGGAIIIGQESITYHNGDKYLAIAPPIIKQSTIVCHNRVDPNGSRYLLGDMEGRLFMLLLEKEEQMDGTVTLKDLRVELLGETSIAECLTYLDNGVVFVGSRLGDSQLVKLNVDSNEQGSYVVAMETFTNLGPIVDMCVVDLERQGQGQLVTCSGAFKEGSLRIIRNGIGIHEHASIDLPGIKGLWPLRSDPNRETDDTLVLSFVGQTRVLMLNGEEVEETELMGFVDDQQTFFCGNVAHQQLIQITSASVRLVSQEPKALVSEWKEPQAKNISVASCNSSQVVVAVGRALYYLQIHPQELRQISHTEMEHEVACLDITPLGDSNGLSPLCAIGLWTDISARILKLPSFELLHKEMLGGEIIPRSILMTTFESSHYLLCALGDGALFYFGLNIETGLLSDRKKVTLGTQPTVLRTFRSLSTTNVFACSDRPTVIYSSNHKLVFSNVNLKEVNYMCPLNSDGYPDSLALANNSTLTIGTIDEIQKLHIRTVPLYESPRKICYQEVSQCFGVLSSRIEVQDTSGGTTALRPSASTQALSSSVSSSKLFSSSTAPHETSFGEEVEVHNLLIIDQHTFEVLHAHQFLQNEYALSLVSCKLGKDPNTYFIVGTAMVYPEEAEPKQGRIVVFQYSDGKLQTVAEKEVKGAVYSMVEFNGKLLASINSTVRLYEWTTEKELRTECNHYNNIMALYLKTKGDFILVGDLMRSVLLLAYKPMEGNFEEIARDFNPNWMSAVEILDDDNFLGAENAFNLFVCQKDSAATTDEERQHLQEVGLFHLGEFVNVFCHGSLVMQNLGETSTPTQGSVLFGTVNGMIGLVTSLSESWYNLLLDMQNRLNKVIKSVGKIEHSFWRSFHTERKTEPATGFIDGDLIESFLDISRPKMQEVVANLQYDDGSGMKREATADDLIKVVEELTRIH

As usually defined, the pKi is the negative decadic logarithm of the Ki, by convention in mol/L. The low end stands for a high Ki, the high end for a low Ki. In general, Dmax refers to the largest share of the target that was removed. Lower therefore signals shallow degradation. For `CC(C)(C)[Si](C)(C)O[C@H]1C[C@H](COC(=O)NC2CN(c3cc(F)c(C4CCC(=O)NC4=O)c(F)c3)C2)C1` (stereo partly shown) [Compound 50, ((1r, 3r)-3-((tert-butyldimethylsilyl)oxy)cyclobutyl)methyl (1-(4-(2,6-dioxopiperidin-3-yl)-3,5-difluorophenyl)azetidin-3-yl)carbamate], on CRBN-DDB1, the pKi is 6.00 to 7.00. Besides, the Dmax at CDK2 (HEK293, HEK293 clonal line) was more than 80%.

`N#Cc1cc(C2CCC(=O)NC2=O)ccc1N1CC(Nc2nnc(C3CC4(CCC4)C3)o2)C1` (stereo not shown) [Compound 89, 5-(2,6-dioxopiperidin-3-yl)-2-(3-((5-(spiro[3.3]heptan-2-yl)-1,3,4-oxadiazol-2-yl)amino)azetidin-1-yl)benzonitrile] gave a pKi on CRBN-DDB1 of less than 6.00. The same molecule registered a Dmax at CDK2 (HEK293, HEK293 clonal line) of 50 to 80%.

`CC(C)(C)[Si](C)(C)O[C@H]1C[C@H](OC(=O)NC2CN(c3cc(F)c(C4CCC(=O)NC4=O)c(F)c3)C2)C1` (stereo partly shown) [Compound 47, (1r, 3r)-3-((tert-butyldimethylsilyl)oxy)cyclobutyl (1-(4-(2,6-dioxopiperidin-3-yl)-3,5-difluorophenyl)azetidin-3-yl)carbamate]: on CRBN-DDB1, the pKi was not below 7.00. The same molecule gave a Dmax on CDK2 (HEK293 clonal line) of more than 80%.

For the molecule `Cc1cccc(-c2nnc(NC3CN(c4cc(F)c(C5CCC(=O)NC5=O)c(F)c4)C3)o2)c1` (stereo not shown) [Compound 97, 3-(2,6-difluoro-4-(3-((5-(m-tolyl)-1,3,4-oxadiazol-2-yl)amino)azetidin-1-yl)phenyl)piperidine-2,6-dione], the pKi on CRBN-DDB1 was 6.00 to 7.00. Also, the Dmax at CDK2 (HEK293, HEK293 clonal line) is more than 80%.

For the molecule `Cn1nccc1N1CC(OC(=O)NC2CN(c3cc(F)c(C4CCC(=O)NC4=O)c(F)c3)C2)C1` (stereo not shown) [Compound 7, 1-(1-methyl-1H-pyrazol-5-yl)azetidin-3-yl (1-(4-(2,6-dioxopiperidin-3-yl)-3,5-difluorophenyl)azetidin-3-yl)carbamate], the pKi on CRBN-DDB1 is not below 7.00. In addition, the Dmax at CDK2 (HEK293, HEK293 clonal line) lay within 10 to 50%.

Turning to `Cc1ccc(-c2nnc(NC3CN(c4cc(F)c(C5CCC(=O)NC5=O)c(F)c4)C3)o2)cc1` (stereo not shown) [Compound 99, 3-(2,6-difluoro-4-(3-((5-(p-tolyl)-1,3,4-oxadiazol-2-yl)amino)azetidin-1-yl)phenyl)piperidine-2,6-dione], at CRBN-DDB1, the pKi was 6.00 to 7.00. For the same molecule, on CDK2 (HEK293, HEK293 clonal line), the Dmax is more than 80%.

`Cn1c(N2CC(OC(=O)NC3CN(c4cc(F)c(C5CCC(=O)NC5=O)c(F)c4)C3)C2)nc2ccccc21` (stereo not shown) [Compound 75, 1-(1-methyl-1H-benzo[d]imidazol-2-yl)azetidin-3-yl (1-(4-(2,6-dioxopiperidin-3-yl)-3,5-difluorophenyl)azetidin-3-yl)carbamate] showed a pKi at CRBN-DDB1 not below 7.00. For the same molecule, at CDK2 (HEK293, HEK293 clonal line), the Dmax is 50 to 80%.

`C[C@@H]1[C@@H](Nc2nnc(-c3ccc(C(F)(F)F)cc3)o2)CN1c1cc(F)c(C2CCC(=O)NC2=O)c(F)c1` (stereo partly drawn) [Compound 141, 3-(2,6-difluoro-4-((2R,3S)-2-methyl-3-((5-(4-(trifluoromethyl)phenyl)-1,3,4-oxadiazol-2-yl)amino)azetidin-1-yl)phenyl)piperidine-2,6-dione] gave a pKi at CRBN-DDB1 of 6.00 to 7.00. On CDK2 (HEK293, HEK293 clonal line), this molecule gave a Dmax of 50 to 80%.

At CRBN-DDB1, `CC(C)(C)O[C@H]1C[C@@H](OC(=O)NC2CN(c3cc(F)c(C4CCC(=O)NC4=O)c(F)c3)C2)C1` (stereo partly shown) [Compound 46, (1s, 3s)-3-(tert-butoxy)cyclobutyl (1-(4-(2,6-dioxopiperidin-3-yl)-3,5-difluorophenyl)azetidin-3-yl)carbamate] showed a pKi not below 7.00. This molecule yielded a Dmax at CDK2 (HEK293, HEK293 clonal line) of 50 to 80%.

On CRBN-DDB1, `CN(C(=O)N1CC(OC(=S)NC2CN(c3cc(F)c(C4CCC(=O)NC4=O)c(F)c3)C2)C1)C1CC1` (stereo not shown) [Compound 108, O-(1-(cyclopropyl(methyl)carbamoyl)azetidin-3-yl) (1-(4-(2,6-dioxopiperidin-3-yl)-3,5-difluorophenyl)azetidin-3-yl)carbamothioate] had a pKi not below 7.00. The molecule also had a Dmax on CDK2 (HEK293, HEK293 clonal line) of more than 80%.

`Cc1cccc(N(C)C(=O)C23CC(OC(=O)NC4CN(c5cc(F)c(C6CCC(=O)NC6=O)c(F)c5)C4)(C2)C3)c1` (stereo not shown) [Compound 134, 3-(methyl(m-tolyl)carbamoyl)bicyclo[1.1.1]pentan-1-yl (1-(4-(2,6-dioxopiperidin-3-yl)-3,5-difluorophenyl)azetidin-3-yl)carbamate] had a pKi on CRBN-DDB1 not below 7.00. Also, the Dmax on CDK2 (HEK293, HEK293 clonal line) was 50 to 80%.

With `Cc1cccnc1N1CC(OC(=O)NC2CN(c3cc(F)c(C4CCC(=O)NC4=O)c(F)c3)C2)C1` (stereo not shown) [Compound 29, 1-(3-methylpyridin-2-yl)azetidin-3-yl (1-(4-(2,6-dioxopiperidin-3-yl)-3,5-difluorophenyl)azetidin-3-yl)carbamate], on CRBN-DDB1, the pKi was not below 7.00. For the same molecule, the Dmax at CDK2 (HEK293, HEK293 clonal line) fell in the range of 50 to 80%.

Consider `Cc1cc(Cl)ccc1N(C)C(=O)N1CC(OC(=O)NC2CN(c3cc(F)c(C4CCC(=O)NC4=O)c(F)c3)C2)C1` (stereo not shown) [Compound 113, 1-((4-chloro-2-methylphenyl)(methyl)carbamoyl)azetidin-3-yl (1-(4-(2,6-dioxopiperidin-3-yl)-3,5-difluorophenyl)azetidin-3-yl)carbamate], for which the pKi at CRBN-DDB1 is not below 7.00. Further, at CDK2 (HEK293, HEK293 clonal line), the greatest degradation seen (Dmax) is 10 to 50%.

As for `COc1c(N2CC(NC(=O)OCC3CC4(CCC4)C3)C2)ccc(C2CCC(=O)NC2=O)c1F` (stereo not shown) [Compound 44, spiro[3.3]heptan-2-ylmethyl (1-(4-(2,6-dioxopiperidin-3-yl)-3-fluoro-2-methoxyphenyl)azetidin-3-yl)carbamate], the pKi at CRBN-DDB1 is 6.00 to 7.00. On CDK2 (HEK293, HEK293 clonal line), this molecule returned a Dmax of more than 80%.

`CN(C(=O)N1CC(OC(=O)NC2CN(c3cc(F)c(C4CCC(=O)NC4=O)c(F)c3)C2)C1)C1CC1` (stereo not shown) [Compound 40, 1-(cyclopropyl(methyl)carbamoyl)azetidin-3-yl (1-(4-(2,6-dioxopiperidin-3-yl)-3,5-difluorophenyl)azetidin-3-yl)carbamate]: at CRBN-DDB1, the pKi was not below 7.00. Besides, the Dmax at CDK2 (HEK293, HEK293 clonal line) lay in the range of 50 to 80%.

For `O=C1CCC(c2c(F)cc(N3CC(Nc4nnc(-c5ccccc5)o4)C3)cc2F)C(=O)N1` (stereo not shown) [Compound 104, 3-(2,6-difluoro-4-(3-((5-phenyl-1,3,4-oxadiazol-2-yl)amino)azetidin-1-yl)phenyl)piperidine-2,6-dione], the pKi at CRBN-DDB1 is not below 7.00. Moreover, on CDK2 (HEK293, HEK293 clonal line), the greatest degradation seen (Dmax) is more than 80%.

`Cc1cc(N2CC(NC(=O)OC3CN(C(=O)N(C)C4CC4)C3)C2)cc(Cl)c1C1CCC(=O)NC1=O` (stereo not shown) [Compound 87, 1-(cyclopropyl(methyl)carbamoyl)azetidin-3-yl (1-(3-chloro-4-(2,6-dioxopiperidin-3-yl)-5-methylphenyl)azetidin-3-yl)carbamate] gave a pKi on CRBN-DDB1 of 6.00 to 7.00. The Dmax on CDK2 (HEK293, HEK293 clonal line) is 50 to 80%.

As for `O=C1CCC(c2c(F)cc(N3CC(NC(=O)OC45CC(C(=O)N6CCC6)(C4)C5)C3)cc2F)C(=O)N1` (stereo not shown) [Compound 126, 3-(azetidine-1-carbonyl)bicyclo[1.1.1]pentan-1-yl (1-(4-(2,6-dioxopiperidin-3-yl)-3,5-difluorophenyl)azetidin-3-yl)carbamate], on CRBN-DDB1, the pKi was not below 7.00. Moreover, the Dmax at CDK2 (HEK293, HEK293 clonal line) is 10 to 50%.

The molecule `O=C1CCC(c2c(F)cc(N3CC(NC(=O)OC4CN(C(=O)c5ccccc5)C4)C3)cc2F)C(=O)N1` (stereo not shown) [Compound 24, 1-benzoylazetidin-3-yl (1-(4-(2,6-dioxopiperidin-3-yl)-3,5-difluorophenyl)azetidin-3-yl)carbamate] showed a pKi at CRBN-DDB1 not below 7.00. The same molecule had a Dmax on CDK2 (HEK293, HEK293 clonal line) of 10 to 50%.

At CRBN-DDB1, `CC(C)C1CC(COC(=O)NC2CN(c3cc(F)c(C4CCC(=O)NC4=O)c(F)c3)C2)C1` (stereo not shown) [Compound 68, (3-isopropylcyclobutyl)methyl (1-(4-(2,6-dioxopiperidin-3-yl)-3,5-difluorophenyl)azetidin-3-yl)carbamate] showed a pKi of 6.00 to 7.00. In addition, the Dmax on CDK2 (HEK293, HEK293 clonal line) is more than 80%.
